Source: BigSolDB 2.1

CCO.C[C@H]1c2cccc(O)c2C(O)=C2C(=O)[C@]3(O)C(O)=C(C(N)=O)C(=O)[C@@H](N(C)C)[C@@H]3[C@@H](O)[C@@H]21.C[C@H]1c2cccc(O)c2C(O)=C2C(=O)[C@]3(O)C(O)=C(C(N)=O)C(=O)[C@@H](N(C)C)[C@@H]3[C@@H](O)[C@@H]21.Cl.Cl.O
Conditions	solubility (mole fraction)
in ethanol, 278.15 K	0.00199
in ethanol, 283.15 K	0.00222
in ethanol, 288.15 K	0.00248
in ethanol, 293.15 K	0.00278
in ethanol, 298.15 K	0.00313
in ethanol, 302.85 K	0.00327
in ethanol, 307.25 K	0.00364
in ethanol, 312.95 K	0.00409
in ethanol, 318.15 K	0.0047
in ethanol, 323.05 K	0.00522
in methanol, 278.15 K	0.0138
in methanol, 283.15 K	0.015
in methanol, 288.15 K	0.016
in methanol, 293.15 K	0.0174
in methanol, 298.15 K	0.0198
in methanol, 302.85 K	0.0251
in methanol, 307.25 K	0.0292
in methanol, 312.95 K	0.0332
in methanol, 318.15 K	0.0402
in methanol, 323.05 K	0.044
in n-propanol, 278.15 K	0.000862
in n-propanol, 283.15 K	0.00101
in n-propanol, 288.15 K	0.00111
in n-propanol, 293.15 K	0.00133
in n-propanol, 298.15 K	0.00151
in n-propanol, 303.15 K	0.00174
in n-propanol, 309.75 K	0.00222
in n-propanol, 316.65 K	0.00273
in n-propanol, 322.55 K	0.00351
in water, 277.55 K	0.00128
in water, 283.05 K	0.00132
in water, 287.85 K	0.0014
in water, 292.95 K	0.00164
in water, 299.15 K	0.00214
in water, 302.35 K	0.00254
in water, 307.45 K	0.00306
in water, 313.25 K	0.00405
in water, 317.85 K	0.00534
in water, 323.05 K	0.00647
